Here are results for five compounds from patent publication US20180071284A1, “PREVENTING OR TREATING VIRAL INFECTION BY INHIBITION OF THE HISTONE METHYLTRANSFERASE EZH1 OR EZH2” (The United States of America, as represented by the …, priority 2015, published 2018).

Structures are written as SMILES. Entries after “also recorded” stand apart in the source; their conditions may differ.

Common to all, as to format: cell-based, herpes simplex virus 1 (HSV-1)
Assay [1] concerns HSV-1. As to the kind of experiment: UL29+ single neurons and neuron clusters in explanted trigeminal ganglia. The following applies: explant 48-hrs; compound 1 35 μM, compound 4 30 μM, ACV 100 μM, ML324 50 μM. An excerpt: Trigeminal ganglia were fixed in paraformaldehyde and tissue sections were […] with anti-UL29 and DAPI. The HSV E gene UL29 (DNA single strand binding replication protein) was used a marker for viral reactivation. Tissue sections were scored for UL29+ cell clusters (clusters indicate viral spread from the primary neuron to surrounding cells) and for individual neurons representing the primary reactivation event (single) (FIGS. 18 and 19).
Trigeminal ganglia were fixed in paraformaldehyde and tissue sections were costained with anti-UL29 and DAPI. The HSV E gene UL29 (DNA single strand binding replication protein) was used a marker for viral reactivation. Tissue sections were scored for UL29+ cell clusters (clusters indicate viral spread from the primary neuron to surrounding cells) and for individual neurons representing the primary reactivation event (single) (FIG. 25).

For assay [2], the system named is HSV-1. The assay can be described thus: Removal of inhibitors prior to HSV-1 infection of HFF cells (mRNA levels). The following applies: washed, then infected; for HSV IE expression after removal of compound prior to infection: 5-hrs treatment (compound 1 35 μM, 2 15 μM, 3 30 μM, 4 30 μM); for IL6 stimulation after removal of compound prior to infection: 5-hrs treatment. Here is the method: HFF cells were treated with inhibitors targeting the catalytic SET domain (compound 1, 35 μM: EZH2; compound 2, 15 μM: EZH2 and EZH1; compound 4, 30 μM: EZH2), EED-EZH2 and EED-EZH1 (compound 3, 30 μM), or DMSO (control) for 5-hrs. Cells were then washed with phosphate buffered saline (PBS) and replaced with media with no inhibitors for the indicated time in FIGS. 21-24 prior to infection with HSV-1 (2.0 PFU per cell) for 1.5-hrs in the absence of inhibitors.

The test system of assay [3] is HSV-1. The assay can be described thus: HSV-1 viral IE mRNA levels in infected Vero (IFN-β null, IRF3 deficient) cells. As to conditions: 5-hrs pretreatment, HSV-1 2.0 PFU per cell. Here is the method:
HFF (wild-type) and Vero (IFN-β null, IRF3 deficient) cells were treated with the indicated concentration of EZH1/2 catalytic inhibitor (compound 1 or 4) or DMSO (vehicle) for 5-hrs. HFF and Vero cells were then infected with HSV-1 (2.0 PFU per cell) for 1.5-hrs in the presence of inhibitor or DMSO. The levels of HSV viral IE (ICP0, ICP4, ICP22, and ICP27) and cellular control (SP1 and TBP) mRNAs are expressed relative to cells treated with DMSO (vehicle).

Assay [4] deals with HSV-1. The assay can be described thus: Mouse trigeminal ganglia explant reactivation model, viral yield titrated on Vero cells. The following applies: explant 48-hrs; compound 1 35 μM, compound 3 30 μM, compound 4 30 μM. Here is the method: Trigeminal ganglia from HSV-1 latently infected mice were bisected. Half were explanted in media with control DMSO (vehicle), and the other half were explanted in media with ACV (100 μM), ML324 (50 μM), compound 1 (35 μM), compound 3 (30 μM), or compound 4 (30 μM) for 48-hrs to induce viral reactivation. Viral yields were determined by titrating on Vero cells. Each point represents the titer of one explanted trigeminal ganglia.

Assay [5] deals with HSV-1. The assay can be described thus: Spread of HSV infection in HFF cells (UL29 staining). The following applies: HSV-1 MOI 0.01 for 8.5-hrs, then treated for 12.5-hrs (30 μM). As for the experimental part:
HFF cells were mock or infected with HSV-1 (MOI 0.01) for 8.5-hrs to allow one round of the viral replication program. The HFF cells were then treated with EZH1/2 inhibitor (compound 1 or compound 4 at 30 μM), viral DNA polymerase inhibitor (ACV at 100 μM), or JMJD3 inhibitor (ML324 at 50 μM) for an additional 12.5-hrs. Cells were paraformaldehyde fixed, permeabilized, and stained for the viral E gene UL29 and actin. The viral E protein UL29 was used as a marker for the spread of viral infection.
HFF cells were mock or infected with HSV-1 (MOI 0.01) for 8.5-hrs to allow one round of the viral replication program. HFF cells were then treated with EZH1/2 (compound 1, compound 4), viral DNA polymerase (ACV), or JMJD3 (ML324) inhibitors for additional 12.5-hrs. Cells were paraformaldehyde fixed, permeabilized, and stained for the viral E gene UL29 and actin (Phalloidin). The viral E protein UL29 was used as a marker for the spread of viral infection.

In assay [6] the test system is HSV-1. The assay can be described thus: HSV-1 cellular and nuclear entry (viral DNA in total and nuclear fractions of HFF cells). As to conditions: compound 1 35 μM, compound 4 30 μM, 5-hrs pretreatment, HSV-1 2.0 PFU per cell 1.5-hrs. As for the experimental part: HFF cells were treated with the EZH1/2 catalytic inhibitor compound 1 (35 μM), compound 4 (30 μM), or DMSO (vehicle) for 5-hrs. The HFF cells were then infected with HSV-1 (2.0 PFU per cell) for 1.5-hrs in the presence of the inhibitors or DMSO (vehicle). The levels of HSV viral DNA isolated from total and nuclear cellular fractions are expressed as ratios relative to DMSO (vehicle).

`Nc1nc2c(ncn2COCCO)c(=O)[nH]1` [ACV, Acyclovir]: the “primary reactivation (UL29+ single neurons)” value (“primary reactivation” for short) in the assay with HSV-1 [1] is on record as “reduced”.
In the case of `CN(C)CCCNC(=O)c1ccc(-c2cc(O)c3ncccc3c2)cc1` [ML324, N-(3-(dimethylamino)propyl)-4-(8-hydroxyquinolin-6-yl)benzamide], in the assay with HSV-1 [1], the “primary reactivation” value is reported as “reduced” and the “secondary spread of HSV (UL29+ neuron clusters)” value is on record as “reduced”.
Take `CCCc1cc(C)[nH]c(=O)c1CNC(=O)c1cc(-c2ccnc(N3CCN(C)CC3)c2)cc2c1cnn2C(C)C` [compound 1, GSK343]: in the assay with HSV-1 [2], the “HSV IE expression after removal of compound prior to infection” value (shortened to “HSV IE expression after removal”) is listed as “recovery of HSV IE expression” and the “IL6 stimulation after removal of compound prior to infection” value is reported as “decrease in IL6 stimulation”. Further, in the assay with HSV-1 [1], the “primary reactivation” value is given as “reduced” and the “secondary spread of HSV (UL29+ neuron clusters)” value is listed as “reduced”. In the assay on HSV-1 [3], the “antiviral activity (HSV IE mRNA) in Vero cells as compared to HFF (wild-type) cells” value is on record as “lack of antiviral activity”. In addition, the “HSV reactivation from latency (viral yield per explanted trigeminal ganglia)” value in the assay on HSV-1 [4] is given as “block HSV reactivation from latency”. The “spread of HSV infection to adjacent cells (UL29 marker)” value with HSV-1 [5] was “block the spread of HSV to adjacent cells; also recorded: block the spread of HSV infection”. In addition, the “HSV-1 viral entry (total and nuclear)” value with HSV-1 [6] was “no impact”.
Consider `CCCc1cc(C)[nH]c(=O)c1CNC(=O)c1cc(-c2ccc(N3CCN(C(C)C)CC3)nc2)cc2c1cnn2C(C)C` [compound 2, UNC1999], for which, in the assay on HSV-1 [2], the “HSV IE expression after removal” value is on record as “recovery of HSV IE expression” and the “IL6 stimulation after removal of compound prior to infection” value is “decrease in IL6 stimulation”.
Regarding `COc1ccc(CCN2CCC(Nc3nc4ccccc4n3Cc3ccc(F)cc3)CC2)cc1` [compound 3, astemizole], in the assay on HSV-1 [2], the “HSV IE expression after removal” value was “recovery of HSV IE expression”. In addition, the “HSV reactivation from latency (viral yield per explanted trigeminal ganglia)” value in the assay with HSV-1 [4] is given as “block HSV reactivation from latency”.
